Data published in PubChem BioAssay (NCI).
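Growth conditions: 96-well plates. Treatment: test compound, 48 hours, 5 concentrations. Analysis: linear interpolation between bracketing concentrations; unreached endpoints set to highest concentration. GI50: concentration for 50% inhibition of growth. TGI denotes the concentration required for complete inhibition of growth.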

Key:
Assay in all cases: inhibition of tumour cell growth, NCI panel, 48 h
HT29 colon = system: HT29 colon
SK-MEL-2 melanoma = system: SK-MEL-2 melanoma
A549 NSCLC = system: A549 NSCLC
SF-539 CNS = system: SF-539 CNS
SF-295 CNS = system: SF-295 CNS
OVCAR-3 ovarian = system: OVCAR-3 ovarian
K-562 leukemia = system: K-562 leukemia
HOP-62 NSCLC = system: HOP-62 NSCLC
UACC-62 melanoma = system: UACC-62 melanoma

Compound	TGI (HT29 colon) [µM]	TGI (SK-MEL-2 melanoma) [µM]	TGI (A549 NSCLC) [µM]	TGI (SF-539 CNS) [µM]	TGI (SF-295 CNS) [µM]	TGI (OVCAR-3 ovarian) [µM]	TGI (K-562 leukemia) [µM]	TGI (HOP-62 NSCLC) [µM]	TGI (UACC-62 melanoma) [µM]	GI50 (SK-MEL-2 melanoma) [µM]	GI50 (A549 NSCLC) [µM]
CCOC(=O)NC(=O)c1cn(C2CCCCC2)c(=O)[nH]c1=O	> 100	> 100	> 100	> 100	> 100	> 100	> 100	> 100	> 100		
CC(C)CCC[C@@H](C)C1CCC2[C@@H]3CC=C4C[C@@H](C(=O)NCCN(C)C)CC[C@]4(C)C3CC[C@@]21C (stereo partly drawn)	> 100	23.6	> 100	46	> 100	> 100	> 100	61.2	> 100		
O=C(N/C(=C\c1ccc([N+](=O)[O-])cc1)c1nc2ccccc2[nH]1)c1ccccc1	> 100	> 100	> 100	> 100	> 100		> 100	> 100	> 100		
COc1cc2c(cc1O)CCN[C@]21CS[C@@H]2c3c(OC(C)=O)c(C)c4c(c3[C@H](COC1=O)N1[C@@H]2[C@H]2c3c(cc(C)c(OC)c3O)C[C@@H]([C@@H]1O)N2C)OCO4	2.52	0.00511	2.83		1.01	0.0057	7.98	0.252	0.00403	0.0031	0.00319
COc1ccc(CC2c3c(cc(OC)c(OC)c3OC)CCN2C)cc1OC (stereo not drawn)	> 100	> 100	> 100	> 100	> 100	> 100	> 100	> 100			
O=C(Cc1nc2c3c(ccc2[nH]c1=O)C(=O)c1ccccc1C3=O)C(=O)Nc1ccccc1[N+](=O)[O-]	41.7	45.4	> 100	34.6		25.6	37	39.2	59		
CC(C)=C1CCC(CN(C)C)C1=O (stereo not drawn)	41.1	78.4	> 100	> 100	> 100	31.7	31		35.1		
COc1c(C)n(CCO)ccc1=O	> 100	> 100	> 100		> 100	> 100	> 100	> 100	> 100		
CCOC(=O)NC(=O)c1cn(C(CC)COC(=O)NCCCCCCNC(=O)OCC(CC)n2cc(C(=O)NC(=O)OCC)c(=O)[nH]c2=O)c(=O)[nH]c1=O (stereo not drawn)	> 100	> 100	> 100		> 100	> 100	> 100	> 100	> 100		
Cc1ccc(C)c(N2C/C(=N\NC(=O)CC#N)C(c3nc4ccccc4s3)C(=O)C2=O)c1 (stereo not drawn)	> 100	> 100	> 100		> 100	> 100		> 100	> 100		
Cn1c(=O)nc2n(-c3cc(C(F)(F)F)cc(C(F)(F)F)c3)c3ccccc3nc-2c1=O	> 100	> 100	> 100	> 100	> 100	> 100	> 100	> 100			
CC(C(=O)c1ccc(Cl)cc1)/C(=N/NC(=O)NN)C(=O)Nc1cccc(C(F)(F)F)c1 (stereo not drawn)	> 100	> 100	> 100	> 100	> 100	> 100	> 100		> 100		
Nc1c(-c2ccccc2-c2c(N)[n+]([O-])c3ccccc3[n+]2[O-])[n+]([O-])c2ccccc2[n+]1[O-]	> 100	> 100	> 100	71.7	> 100	> 100	> 71.8		26.5		
CC1=C(C#N)C(=O)CC(c2ccc(Cl)cc2)N(C)N1 (stereo not drawn)	> 100	> 100	> 100		> 100			> 100			
CC(=O)N1CCN(c2ccc(OCC3COC(Cn4ccnc4)(c4ccc(Cl)cc4Cl)O3)cc2)CC1 (stereo not drawn)	43.9	39.1	> 100			> 100	> 100	> 100	38		
COc1ccc(-c2oc(/C=N/NC(N)=S)c([N+](=O)[O-])c2-c2ccc(OC)c(OC)c2)cc1OC	51.7	35.2	> 100	67.6	53.4	47.9		> 100	78.5		
CN(C(=O)c1ccc([N+](=O)[O-])cc1)c1ccccc1	> 100		> 100	> 100	> 100	> 100	> 10	> 100	> 10		
CCOP(=O)(OCC)C(C(=O)OC)C(=O)C(=O)Nc1ccc(Cl)cc1Cl (stereo not drawn)	> 100	> 100	> 100	> 100		> 100	> 100	> 100	> 100		
